Measured values from US10463532B2, “Method for placing implant in choroid that can less invasively and simply place implant in choroid in optic disc-macula area” (priority 2016, dated 2019).

How the values were obtained:
[1] = Experiment 2: dexamethasone concentration in the retina after DEX-PLA implant placed in the choroid near the optic disc (LC/MS/MS); type: in vivo, Japanese white rabbits; conditions: Japanese white, rabbit, other: intrachoroidal implant near the optic disc, 3 μg
Excerpt: Nine 3-month-old Japanese white rabbits (purchased from Japan SLC, Inc., weight: 2 to 2.5 kg) were used as subjects, and the implant was placed in one of the eyes of each rabbit.
The implant was placed in the choroid using the method for placing an implant in the choroid according to the embodiments of the invention. Specifically, the conjunctiva was incised, and an injection needle having a size of 25G was inserted between the conjunctiva and the sclera. The tip of the injection needle was advanced to the vicinity of the optic disc along the surface of the sclera. After placing a vitrectomy lens over the cornea so that the eyeground could be observed, the tip of the injection needle appearing white was observed while observing the eyeground through the vitrectomy lens and pressing the sclera using the tip of the injection needle. The tip of the injection needle was moved to determine an appropriate insertion position of the implant in the vicinity of the optic disc, and the tip of the injection needle was inserted diagonally into the sclera. The tip of the injection needle was advanced into the choroid, and the implant was inserted into the choroid through the tip opening formed at the tip of the injection needle.
The eyeball was removed from each rabbit (three rabbits) belonging to each group when 24 hours, 1 week, and 3 weeks had elapsed after the placement of the implant.

[2] = Experiment 1: dexamethasone concentration in the retina after intravitreal, intrascleral or intrachoroidal gelatin implant (LC/MS/MS); type: in vivo, Japanese white rabbits; conditions: Japanese white, rabbit, 3 μg
Experimental: Experiments were performed to determine the drug release effect of an intrachoroidal implant, an intravitreal implant, and an intrascleral implant. In Experiment 1, the implant was placed in the choroid using the known method illustrated in FIG. 10. […] Therefore, the implant was placed in the choroid using the known method in order to compare the intravitreal implant, the intrascleral implant, and the intrachoroidal implant as to the drug release effect.
Gelatin was cut to have a size of 0.3 (length)×0.3 (width)×0.1 (thick) mm.
Twelve 3-month-old Japanese white rabbits (purchased from Japan SLC, Inc., weight: 2 to 2.5 kg) were used as subjects. The rabbits were equally divided into an intrachoroidal implant group, an intravitreal implant group, and an intrascleral implant group, and the implant was placed in one of the eyes of each rabbit belonging to each group.
Regarding the intrachoroidal implant group, the vitreous gel in the eyeball was liquefied, and the implant was placed in the choroid using the known method for placing an implant in the choroid. The implant was placed in the choroid at a position 6 mm below the cornea.
Regarding the intravitreal implant group, the implant was placed in the vitreous body at a position 2 mm above the cornea.
Regarding the intrascleral implant group, the implant was placed in the sclera at a position 6 mm below the cornea.
The eyeball was removed from each rabbit (four rabbits) belonging to each group when 1, 3, and 24 hours had elapsed after the placement of the implant. […] In FIG. 14, the symbol “*” indicates P<0.05, and the symbol “**” indicates P<0.01.

concentration at 1 week [1]: 41.2 ± 14.2 ng/g | concentration at 3 weeks [1]: 17.2 ± 11.3 ng/g | concentration at 24 h [1]: 159 ± 28.2 ng/g | concentration at 1 h ([2]; other: intrachoroidal implant): 409 ± 115 ng/g | concentration at 3 h ([2]; other: intrachoroidal implant): 23.8 ± 10.2 ng/g | concentration at 24 h ([2]; other: intrachoroidal implant): 4.7 ± 3.3 ng/g | concentration at 1 h ([2]; other: intrascleral implant): 122 ± 79.7 ng/g | concentration at 3 h ([2]; other: intrascleral implant): 5.4 ± 4 ng/g | concentration at 24 h ([2]; other: intrascleral implant): 3.3 ± 3.2 ng/g | concentration at 1 h ([2]; other: intravitreal implant): 13.5 ± 8.7 ng/g | concentration at 3 h ([2]; other: intravitreal implant): 3.6 ± 4.2 ng/g | concentration at 24 h ([2]; other: intravitreal implant): 4.2 ± 4.5 ng/g
SMILES: C[C@@H]1C[C@H]2[C@@H]3CCC4=CC(=O)C=C[C@]4(C)[C@@]3(F)[C@@H](O)C[C@]2(C)[C@@]1(O)C(=O)CO [dexamethasone]
